Eleven compounds from patent US12122763B2, “Substituted piperidines for androgen receptor degradation” (UBIX THERAPEUTICS, INC., priority 2020, dated 2024) can be followed below.

The experiment concerns the target T1, Androgen Receptor (AR) protein (Homo sapiens, UniProt P10275, T878A).
T1 construct: endogenous in cells; host or cells: LNCaP
Put plainly: Androgen Receptor (AR) protein degradation assay in LNCaP cells, western blotting. The class given is cell-based. The conditions noted are these: 20 h; for inhibition at 0.01 µM: 0.01 μM compound; for inhibition at 0.1 µM: 0.1 μM compound; for inhibition at 1 µM: 1 μM compound. As for the experimental part:
Experimental Example 1: Androgen Receptor (AR) Protein Degradation Assay
After treating LNCaP cells with the synthesized Example compound, the amount of AR protein present in the cells was measured. The amount of AR protein was measured using western blotting detection method. The protocol of the experiment using LNCaP cells was as follows:
[Culture] LNCaP cells were resuspended in RPMI1640 MEDIUM (Hyclone, SH30027.01), 10% FBS (Hyclone, SV30207.02), and 1% Penicillin-streptomycin (Welgene, LS 202-02) media to be 3×10^5/mL. Then, 1 mL each was seeded in a 12-well plate. After that, they were cultured for 3 days.
[Compound treatment] 10 μl of 0.1, 1, 10, and 100 μM compound, which is the final compound treatment concentration and a 100× stock of 0.001, 0.01, 0.1, and 1 μM, was added in 1 ml media of each well, and 20 hours later, the cells were harvested.
[Cell Lysis] Cell pellets were suspended using 1% SDS lysis buffer (50 mM Tris, 1 mM EDTA, 1% SDS, pH 8.0, 0.5 mM PMSF, 1× Protease/Phosphatase inhibitor Cocktail (Cell Signaling Technology, 5872s)), and sonication (70% AMP, 5 cycles (30 sec ON/59 sec OFF)) was performed. Cell lysate was obtained after centrifugation at 4° C., 15000 g, for 20 minutes.
[Protein quantification] A BCA protein assay (SMART™ BCA Protein Assay Kit, iNtRON Biotechnology, 21071) was performed using a 96-well microplate. After adding 5 μl cell lysate and 5 μl 1% SDS lysis buffer to each well of the 96-well plate, 200 μl of BCA reagent (Reagent A:Reagent B=50:1) was additionally added. After incubation at 37° C. for 30 minutes, it was cooled at room temperature for 10 minutes. Then, absorbance was measured at a wavelength of 562 nm. The unknown protein concentration was measured using a BSA standard curve (0, 0.125, 0.25, 0.5, 1, 2 mg/ml). Western blotting samples were prepared by mixing cell lysate, 1% SDS lysis buffer, 4× Bolt™ LDS Sample buffer (Invitrogen, B0008), and 10× Bolt™ Sample Reducing Agent (Invitrogen, B0009) and boiling the mixture at 70° C. for 10 minutes.
[Electrophoresis] After loading 8 μg of protein sample into each well of Bolt™ 4 to 12%, Bis-Tris, 1.0 mm Mini Protein Gel, 17-well (Invitrogen, NW04127BOX), Bolt™ MES SDS Running Buffer (Invitrogen, B0002) was used for electrophoresis at 200V (constant V) for 50 minutes.
[Transfer] Using electrophoresis gel and Trans-Blot® Turbo™ Transfer Starter System (Bio-RAD, #17001918, Mini Nitrocellulose), transfer proceeded for 15 minutes under the condition of 1.3A (Constant A) and 25V (Limit V). To confirm protein transfer, 15 ml of Ponceau S solution (Sigma, P7170-1L) was used for staining for 1 minute, followed by washing to confirm the degree of transfer.
[Blocking] Membranes for AR detection were blocked for 45 minutes with 5% skim milk/0.2% TBST (Skim milk: BD, 232100/20× TBS: Biosesang, TR2008-100-00/10% Tween 20 Solution: Bio-RAD, #161-0781). Membranes for GAPDH and β-actin detection were blocked for 45 minutes with Odyssey blocking buffer: 0.1% TBST=1:1 (Odyssey blocking buffer: Li-COR Biosciences, 927-50000).
[Antibody and detection] The primary AR antibody (Androgen Receptor: CST, 5153s) was mixed with 5% skim milk/0.2% TBST at a ratio of 1:1000 and attached for 3 hours at room temperature. Primary β-actin antibody (GeneTex, 629630) was mixed with 5% BSA/0.2% TBST at a ratio of 1:2000 and attached for 3 hours at room temperature. Primary GAPDH antibody (GeneTex, 100118) was mixed with 5% BSA/0.2% TBST at a ratio of 1:2000 and attached for 3 hours at room temperature. After 3 hours, it was washed 3 times every 5 minutes using TBST (0.2% Tween 20). Anti-rabbit IgG, HRP-linked Antibody (CST, 7074s), secondary antibody for the AR antibody was mixed with 5% skim milk/0.2% TBST at a ratio of 1:5000 and attached for 45 minutes at room temperature. […]
In general terms: Immunoblotting shows a protein as a band on a membrane.

T1 sequence (P10275 whole entry T878A): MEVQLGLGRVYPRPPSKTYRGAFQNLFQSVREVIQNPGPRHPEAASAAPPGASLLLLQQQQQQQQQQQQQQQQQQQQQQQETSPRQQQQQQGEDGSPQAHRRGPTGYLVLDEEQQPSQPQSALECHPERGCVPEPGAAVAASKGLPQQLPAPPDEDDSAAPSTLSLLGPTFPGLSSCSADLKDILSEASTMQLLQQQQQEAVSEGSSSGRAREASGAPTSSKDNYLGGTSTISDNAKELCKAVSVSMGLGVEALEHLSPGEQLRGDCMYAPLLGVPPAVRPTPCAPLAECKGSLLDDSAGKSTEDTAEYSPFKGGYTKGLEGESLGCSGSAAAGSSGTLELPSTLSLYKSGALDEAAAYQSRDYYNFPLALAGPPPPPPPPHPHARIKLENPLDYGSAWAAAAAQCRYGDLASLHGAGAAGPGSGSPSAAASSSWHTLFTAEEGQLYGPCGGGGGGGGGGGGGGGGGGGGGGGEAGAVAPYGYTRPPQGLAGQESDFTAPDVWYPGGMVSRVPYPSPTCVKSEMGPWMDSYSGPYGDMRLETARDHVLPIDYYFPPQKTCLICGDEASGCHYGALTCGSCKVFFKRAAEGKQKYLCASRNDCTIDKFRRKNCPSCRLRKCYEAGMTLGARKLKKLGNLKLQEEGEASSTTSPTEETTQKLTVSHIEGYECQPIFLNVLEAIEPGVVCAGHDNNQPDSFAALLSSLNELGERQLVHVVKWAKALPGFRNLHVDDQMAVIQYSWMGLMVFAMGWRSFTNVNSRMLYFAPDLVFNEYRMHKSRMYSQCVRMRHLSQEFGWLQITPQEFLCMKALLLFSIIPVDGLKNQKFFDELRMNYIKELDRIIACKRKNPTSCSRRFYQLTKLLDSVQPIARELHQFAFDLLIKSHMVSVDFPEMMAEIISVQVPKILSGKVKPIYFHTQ
T1 sequence (Q96SW2 whole entry partner): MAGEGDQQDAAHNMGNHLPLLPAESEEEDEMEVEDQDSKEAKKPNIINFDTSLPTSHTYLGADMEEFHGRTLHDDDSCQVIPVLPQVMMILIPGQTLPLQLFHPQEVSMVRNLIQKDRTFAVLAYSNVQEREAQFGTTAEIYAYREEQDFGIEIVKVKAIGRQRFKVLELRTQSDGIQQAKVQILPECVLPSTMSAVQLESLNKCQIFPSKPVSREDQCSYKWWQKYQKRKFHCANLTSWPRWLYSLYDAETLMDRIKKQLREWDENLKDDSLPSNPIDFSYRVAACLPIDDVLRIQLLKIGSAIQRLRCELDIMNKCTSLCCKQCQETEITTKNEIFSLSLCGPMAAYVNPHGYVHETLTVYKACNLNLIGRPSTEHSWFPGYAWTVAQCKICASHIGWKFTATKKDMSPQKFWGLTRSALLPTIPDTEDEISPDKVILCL

A word on the inhibition: it is the drop in the measured response relative to a control, in per cent. Lower therefore signals a weak effect. `C[C@@H]1CN(CC2CN(c3ccc4c(c3)C(=O)N(C3CCC(=O)NC3=O)C4=O)C2)CCN1CC1CCN(c2ccc(NC(=O)C3CCN(c4ccc(C#N)c(C(F)(F)F)c4)CC3)nc2)CC1` (stereo partly drawn) [Example 24, 1-(4-cyano-3-(trifluoromethyl)phenyl)-N-(5-(4-(((2R)-4-((1-(2-(2,6-dioxopiperidin-3-yl)-1,3-dioxoisoindolin-5-yl)azetidin-3-yl)methyl)-2-methylpiperazin-1-yl)methyl)piperidin-1-yl)pyridin-2-yl)piperidine-4-carboxamide] came in with an inhibition at 0.01 µM of 53%, an inhibition at 0.1 µM of 96% and an inhibition at 1 µM of 95%.
The corresponding values for `C[C@@H]1CN(CC2CCN(c3ccc(NC(=O)C4CCN(c5ccc(C#N)c(C(F)(F)F)c5)CC4)nc3)CC2)CCN1CC1CCN(c2ccc3c(c2)C(=O)N(C2CCC(=O)NC2=O)C3=O)CC1` (stereo partly drawn) [Example 25, 1-(4-cyano-3-(trifluoromethyl)phenyl)-N-(5-(4-(((3R)-4-((1-(2-(2,6-dioxopiperidin-3-yl)-1,3-dioxoisoindolin-5-yl)piperidin-4-yl)methyl)-3-methylpiperazin-1-yl)methyl)piperidin-1-yl)pyridin-2-yl)piperidine-4-carboxamide] are 73%, 98% and 98%.
As for `C[C@@H]1CN(CC2CCN(c3ccc(NC(=O)C4CCN(c5ccc(C#N)c(C(F)(F)F)c5)CC4)nc3)CC2)CCN1CC1CN(c2ccc3c(c2)C(=O)N(C2CCC(=O)NC2=O)C3=O)C1` (stereo partly drawn) [Example 26, 1-(4-cyano-3-(trifluoromethyl)phenyl)-N-(5-(4-(((3R)-4-((1-(2-(2,6-dioxopiperidin-3-yl)-1,3-dioxoisoindolin-5-yl)azetidin-3-yl)methyl)-3-methylpiperazin-1-yl)methyl)piperidin-1-yl)pyridin-2-yl)piperidine-4-carboxamide], at 0.01 µM the inhibition was 75%, the inhibition at 0.1 µM is 98% and the inhibition at 1 µM is 98%.
For `N#Cc1ccc(N2CCC(C(=O)Nc3ccc(N4CC(CN5CCN(CC6CCN(c7ccc8c(c7)C(=O)N(C7CCC(=O)NC7=O)C8=O)CC6)CC5)C4)cn3)CC2)cc1C(F)(F)F` (stereo not drawn) [Example 27, 1-(4-cyano-3-(trifluoromethyl)phenyl)-N-(5-(3-((4-((1-(2-(2,6-dioxopiperidin-3-yl)-1,3-dioxoisoindolin-5-yl)piperidin-4-yl)methyl)piperazin-1-yl)methyl)azetidin-1-yl)pyridin-2-yl)piperidine-4-carboxamide], the inhibition at 0.01 µM was found to be 78%, the inhibition at 0.1 µM was found to be 97% and at 1 µM the inhibition was 97%.
In turn, `N#Cc1ccc(N2CCC(C(=O)Nc3ccc(N4CC(CN5CCN(C[C@H]6CCN(c7ccc8c(c7)C(=O)N(C7CCC(=O)NC7=O)C8=O)C6)CC5)C4)cn3)CC2)cc1C(F)(F)F` (stereo partly drawn) [Example 28, 1-(4-cyano-3-(trifluoromethyl)phenyl)-N-(5-(3-((4-(((3R)-1-(2-(2,6-dioxopiperidin-3-yl)-1,3-dioxoisoindolin-5-yl)pyrrolidin-3-yl)methyl)piperazin-1-yl)methyl)azetidin-1-yl)pyridin-2-yl)piperidine-4-carboxamide] displayed an inhibition at 0.01 µM of 82%, an inhibition at 0.1 µM of 96% and an inhibition at 1 µM of 95%.
Compound `N#Cc1ccc(N2CCC(C(=O)Nc3ccc(N4CC(CN5CCN(C[C@@H]6CCN(c7ccc8c(c7)C(=O)N(C7CCC(=O)NC7=O)C8=O)C6)CC5)C4)cn3)CC2)cc1C(F)(F)F` (stereo partly drawn) [Example 29, 1-(4-cyano-3-(trifluoromethyl)phenyl)-N-(5-(3-((4-(((3S)-1-(2-(2,6-dioxopiperidin-3-yl)-1,3-dioxoisoindolin-5-yl)pyrrolidin-3-yl)methyl)piperazin-1-yl)methyl)azetidin-1-yl)pyridin-2-yl)piperidine-4-carboxamide] gave an inhibition at 0.01 µM of 80%, an inhibition at 0.1 µM of 97% and an inhibition at 1 µM of 97%.
Turning to `N#Cc1ccc(N2CCC(C(=O)Nc3ccc(N4CC(CN5CCN(CC6CN(c7ccc8c(c7)C(=O)N(C7CCC(=O)NC7=O)C8=O)C6)CC5)C4)cn3)CC2)cc1C(F)(F)F` (stereo not drawn) [Example 30, 1-(4-cyano-3-(trifluoromethyl)phenyl)-N-(5-(3-((4-((1-(2-(2,6-dioxopiperidin-3-yl)-1,3-dioxoisoindolin-5-yl)azetidin-3-yl)methyl)piperazin-1-yl)methyl)azetidin-1-yl)pyridin-2-yl)piperidine-4-carboxamide], the inhibition at 0.01 µM amounted to 78%, the inhibition at 0.1 µM came out at 99% and the inhibition at 1 µM is 97%.
The corresponding values for `C[C@@H]1CN(CC2CN(c3ccc4c(c3)C(=O)N(C3CCC(=O)NC3=O)C4=O)C2)CCN1CC1CN(c2ccc(NC(=O)C3CCN(c4ccc(C#N)c(C(F)(F)F)c4)CC3)nc2)C1` (stereo partly drawn) [Example 31, 1-(4-cyano-3-(trifluoromethyl)phenyl)-N-(5-(3-(((2R)-4-((1-(2-(2,6-dioxopiperidin-3-yl)-1,3-dioxoisoindolin-5-yl)azetidin-3-yl)methyl)-2-methylpiperazin-1-yl)methyl)azetidin-1-yl)pyridin-2-yl)piperidine-4-carboxamide] are 67%, 99% and 97%.
For `C[C@@H]1CN(CC2CN(c3ccc(NC(=O)C4CCN(c5ccc(C#N)c(C(F)(F)F)c5)CC4)nc3)C2)CCN1CC1CN(c2ccc3c(c2)C(=O)N(C2CCC(=O)NC2=O)C3=O)C1` (stereo partly drawn) [Example 32, 1-(4-cyano-3-(trifluoromethyl)phenyl)-N-(5-(3-(((3R)-4-((1-(2-(2,6-dioxopiperidin-3-yl)-1,3-dioxoisoindolin-5-yl)azetidin-3-yl)methyl)-3-methylpiperazin-1-yl)methyl)azetidin-1-yl)pyridin-2-yl)piperidine-4-carboxamide], in that order: 62%, 99% and 99%.
The compound `N#Cc1ccc(N2CCC(C(=O)Nc3ccc(N4CCC(CN5CCN(C6CN(c7ccc8c(n7)CN(C7CCC(=O)NC7=O)C8=O)C6)CC5)CC4)cn3)CC2)cc1C(F)(F)F` (stereo not drawn) [Example 33, 1-(4-cyano-3-(trifluoromethyl)phenyl)-N-(5-(4-((4-(1-(6-(2,6-dioxopiperidin-3-yl)-5-oxo-6,7-dihydro-5H-pyrrolo[3,4-b]pyridin-2-yl)azetidin-3-yl)piperazin-1-yl)methyl)piperidin-1-yl)pyridin-2-yl)piperidine-4-carboxamide] returned an inhibition at 0.01 µM of 54%, an inhibition at 0.1 µM of 90% and an inhibition at 1 µM of 72%.
For `N#Cc1ccc(N2CCC(C(=O)Nc3ccc(N4CCC(CN5CCN(CC6CCN(c7ccc8c(n7)CN(C7CCC(=O)NC7=O)C8=O)CC6)CC5)CC4)cn3)CC2)cc1C(F)(F)F` (stereo not drawn) [Example 34, 1-(4-cyano-3-(trifluoromethyl)phenyl)-N-(5-(4-((4-((1-(6-(2,6-dioxopiperidin-3-yl)-5-oxo-6,7-dihydro-5H-pyrrolo[3,4-b]pyridin-2-yl)piperidin-4-yl)methyl)piperazin-1-yl)methyl)piperidin-1-yl)pyridin-2-yl)piperidine-4-carboxamide], in that order: 88%, 99% and 96%.
